The results in this text go back to the supplement of paper PMC7840683.

This test relates to HepaRG. Put plainly: LDH release cytotoxicity, % of total lysis control; higher = more cytotoxic. The note with it: 48 h. The essentials:
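Eight-point half-log series of test chemicals, the highest at 100 µM, were given in duplicate for 48 h to single-lot HepaRG cells on collagen I-coated 96-well plates in serum-free induction medium with 0.5% DMSO. A Tecan Safire read resorufin fluorescence from CytoTox-ONE as a measure of LDH in 50 µL spent medium, with 0.1% Triton X in total lysis wells. Percent cytotoxicity was normalized to on-plate vehicle and total lysis controls and averaged over the duplicates.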
Background: LDH leaks from cells whose membrane has failed.

± gives the standard deviation of the averaged measurements.

Turning to `CCCOc1nn(C(=O)NS(=O)(=O)c2ccccc2C(=O)OC)c(=O)n1C` [Propoxycarbazone-sodium], the LDH release cytotoxicity was 0.284 ± 0.84% (0.03162 µM); 0.427 ± 0.12% (0.1 µM); -0.758 ± 0.093% (0.3162278 µM); -0.962 ± 0.093% (1 µM); -0.435 ± 0.032% (3.16228 µM); -0.39 ± 0.58% (10 µM). Besides, the LDH release cytotoxicity was -0.185 ± 0.43% (31.6228 µM) and 0.864 ± 0.4% (100 µM).

`CCOC(=O)NCCOc1ccc(Oc2ccccc2)cc1` [Fenoxycarb]: the LDH release cytotoxicity reads like this: (0.03162 µM) -2.3 ± 0.29%; (0.1 µM) -2.15 ± 0.69%; (0.3162278 µM) -2.2 ± 0.96%; (1 µM) -2.52 ± 0.77%; (3.16228 µM) -2.33 ± 0.49%; (10 µM) -1.4 ± 0.053%. For the same molecule, the LDH release cytotoxicity (31.6228 µM) is -2.64 ± 0.77% and the LDH release cytotoxicity (100 µM) is 16.6 ± 5.7%.

`Cn1cnc2c1c(=O)[nH]c(=O)n2C` [Theobromine]: the LDH release cytotoxicity is 0.266 ± 2.6% (0.0132816 µM); 0.527 ± 1.8% (0.042 µM); 0.244 ± 1.1% (0.132816 µM); -0.545 ± 0.65% (0.42 µM); 0.0875 ± 0.46% (1.3281566 µM); -0.226 ± 0.1% (4.2 µM). The LDH release cytotoxicity was -0.215 ± 0.61% (13.281566 µM) and 0.896 ± 0.38% (42 µM).

Regarding `c1ccc2occc2c1` [2,3-Benzofuran], the LDH release cytotoxicity is -0.572 ± 0.84% (0.03162 µM); -1.07 ± 0.4% (0.1 µM); -0.829 ± 0.4% (0.3162278 µM); -0.181 ± 0.71% (1 µM); -1.1 ± 0.81% (3.16228 µM); 0.338 ± 0.67% (10 µM). Further, the LDH release cytotoxicity by setting is: (31.6228 µM) 2.32 ± 1.2%; (100 µM) 2.02 ± 0.38%.

For `O=P(OC(CCl)CCl)(OC(CCl)CCl)OC(CCl)CCl` [Tris(1,3-dichloro-2-propyl) phosphate], the LDH release cytotoxicity reads like this: (0.03162 µM) 0.268 ± 1.8%; (0.1 µM) -1.46 ± 0.26%; (0.3162278 µM) -0.407 ± 0.3%; (1 µM) -1.12 ± 0.76%; (3.16228 µM) -0.951 ± 0.83%; (10 µM) -0.799 ± 0.15%. Besides, the LDH release cytotoxicity (31.6228 µM) amounted to 0.114 ± 0.25% and the LDH release cytotoxicity (100 µM) came out at 9.87 ± 0.53%.

Consider `OC[C@@H](O)[C@@H](O)[C@H](O)[C@H](O)CO` [D-Mannitol], for which the LDH release cytotoxicity runs as follows: (0.031623 µM) -0.135 ± 0.17%; (0.1 µM) -2.88 ± 0.9%; (0.316228 µM) -2.85 ± 0.69%; (1 µM) -2.73 ± 0.41%; (3.16228 µM) -2.39 ± 0.089%; (10 µM) -1.31 ± 0.43%. The LDH release cytotoxicity runs as follows: (31.6228 µM) 0.669 ± 0.23%; (100 µM) 3.29 ± 0.076%.

`CC12CCC3C(CCC4=CC(=O)CCC43C)C1CCC2=O` (stereo not given) [4-Androstene-3,17-dione]: the LDH release cytotoxicity was -0.88 ± 1.8% (0.03162 µM); -1.74 ± 1.8% (0.1 µM); -3.47 ± 0.78% (0.3162278 µM); -2.45 ± 0.041% (1 µM); -1.84 ± 0.94% (3.16228 µM); -1.3 ± 1.1% (10 µM). In addition, the LDH release cytotoxicity by setting is: (31.6228 µM) -0.324 ± 1.7%; (100 µM) 37.8 ± 21%.

With `NC=O` [Formamide], the LDH release cytotoxicity is -0.907 ± 0.53% (0.03162 µM); -1.37 ± 0.46% (0.1 µM); -0.701 ± 1.2% (0.3162278 µM); -1.62 ± 1.2% (1 µM); -1.72 ± 0.14% (3.16228 µM); -1.47 ± 1.5% (10 µM). The LDH release cytotoxicity reads like this: (31.6228 µM) -0.537 ± 0.33%; (100 µM) 0.4 ± 1.3%.

Take `CC12CCC3c4ccc(O)cc4CCC3C1CCC2=O` (stereo not given) [Estrone]: the LDH release cytotoxicity is, setting by setting: (0.03162 µM) -1.21 ± 0.2%; (0.1 µM) -1.61 ± 0.43%; (0.3162278 µM) -1.15 ± 0.68%; (1 µM) -2.36 ± 0.6%; (3.16228 µM) -2.37 ± 0.056%; (10 µM) -2.52 ± 0.45%. In addition, the LDH release cytotoxicity (31.6228 µM) is -1.9 ± 0.29% and the LDH release cytotoxicity (100 µM) turned out to be 0.127 ± 1.1%.

Consider `CC1=CC(=O)CC(C)(C)C1` [Isophorone], for which the LDH release cytotoxicity by setting is: (0.03162 µM) -0.205 ± 0.22%; (0.1 µM) 0.529 ± 2.1%; (0.3162278 µM) -0.132 ± 0.62%; (1 µM) -0.235 ± 0.13%; (3.16228 µM) 0.145 ± 0.46%; (10 µM) 1.04 ± 0.22%. Besides, the LDH release cytotoxicity runs as follows: (31.6228 µM) 0.514 ± 0.36%; (100 µM) 1.74%.

For the molecule `N#CN` [Cyanamide], the LDH release cytotoxicity is -0.717 ± 0.38% (0.03162 µM); -2.37 ± 0.27% (0.1 µM); -1.74 ± 0.7% (0.3162278 µM); -1.73 ± 0.39% (1 µM); -2.07 ± 0.26% (3.16228 µM); -1.59 ± 0.22% (10 µM). The LDH release cytotoxicity (31.6228 µM) is -1.21 ± 0.71% and the LDH release cytotoxicity (100 µM) is -0.0755 ± 0.84%.

Consider `CCOP(=S)(OCC)Oc1ccc([N+](=O)[O-])cc1` [Parathion], for which the LDH release cytotoxicity runs as follows: (0.03162 µM) -1.76 ± 1.2%; (0.1 µM) -2.78 ± 0.71%; (0.3162278 µM) -2.35 ± 0.15%; (1 µM) -2.92 ± 0.81%; (3.16228 µM) -3.21 ± 0.57%; (10 µM) -2.39 ± 0.84%. For the same molecule, the LDH release cytotoxicity reads like this: (31.6228 µM) -1.78 ± 1.4%; (100 µM) 6.21 ± 0.097%.

Regarding `CCCCCCCC=O` [Octanal], the LDH release cytotoxicity was -2.27 ± 0.13% (0.03162 µM); -2.49 ± 0.035% (0.1 µM); -2.18 ± 1.1% (0.3162278 µM); -1.59 ± 0.17% (1 µM); -1.99 ± 0.053% (3.16228 µM); -1.65 ± 0.19% (10 µM). Also, the LDH release cytotoxicity reads like this: (31.6228 µM) -0.367 ± 0.076%; (100 µM) -0.293 ± 0.53%.

Take `C/C=C/c1ccc(OC)cc1` [(E)-Anethole]: the LDH release cytotoxicity is -0.814 ± 0.42% (0.03162 µM); -0.865 ± 0.97% (0.1 µM); -1.3 ± 0.57% (0.3162278 µM); -0.855 ± 0.66% (1 µM); -1.25 ± 0.25% (3.16228 µM); -0.44 ± 0.067% (10 µM). Also, the LDH release cytotoxicity (31.6228 µM) is -0.316 ± 0.29% and the LDH release cytotoxicity (100 µM) was 1.16 ± 1%.

Take `CCc1cc(SCc2sc(-c3ccc(C(F)(F)F)cc3)nc2CN2CCN(c3ccc(OC)cc3)CC2)ccc1OCC(=O)O`: the LDH release cytotoxicity runs as follows: (0.03162 µM) -1.41 ± 0.0016%; (0.1 µM) -1.04 ± 0.17%; (0.3162278 µM) -0.879 ± 1.1%; (1 µM) -1.49 ± 0.045%; (3.16228 µM) -2.29 ± 0.43%; (10 µM) 21 ± 2.3%. Moreover, the LDH release cytotoxicity by setting is: (31.6228 µM) 70.2 ± 1.2%; (100 µM) 84 ± 2.7%.
